The text below walks through data of patent publication US20140303144A1, “COMPOUNDS AND METHODS OF TREATING HYPERTENSION” (Medivation Technologies, Inc., priority 2011, published 2014).

Each structure is given as a SMILES string.

In one test the test system is New Zealand White rabbits.
Assay: not given
To be noted: conscious rabbits, intravenous cumulative doses, positive control.
Regarding `Clc1cccc(Cl)c1N=C1NCCN1` [Clonidine], the “maximum drop of arterial blood pressure” value is reported as −6 mmHg.

Another test deals with SH-SY5Y cells. Description: Cell viability assay (MTS reduction) against 4-Br-A23187 challenge. It counts as cell-based. To be noted: Homo sapiens, SH-SY5Y, compound 10 nM, 4-Br-A23187 (2 μM) for 24 h, Control = 100, Vehicle = 0, read-out: Relative Cytoprotective capacity. The procedure:
SH-SY5Y cells cultured in DMEM/F12 media supplemented with 10% FBS were seeded in 96-well microplates at 150,000 cells/cm^2. After 24 h, cells were depleted from FBS and kept in culture for 24 h before the experiment. A stock solution was prepared by dissolving the calcium ionophore 4-Br-A23187 (Calbiochem Cat. N^o 100107) in DMSO at 25 mM. Cells were then treated with 4-Br-A23187 (2 μM), hydrogen peroxide (300 μM) or the mitochondrial toxin rotenone (25 μM) in the presence of vehicle or Compound of the Invention for 24 h. Cell death was determined by measurements of LDH release according to the Cytotoxicity Detection KitPlus (Roche, Mannheim, Germany). Cell viability was determined by measuring the capacity of cells to metabolize MTS tetrazolium (MTS) according to the Cytotoxicity Detection KitPlus (Roche, Mannheim, Germany) and MTS reduction was assessed by the CellTiter 96® AQueous One Solution Cell Proliferation assay (Promega Corporation, Madison, Wis., USA). Compounds were screened at 10 nM, using DMSO as vehicle. Assay results for the experiments with Br-A23187 were presented as the MTS reduction capacity (cell viability) of untreated cells (control), 4-Br-A23187-treated cells (vehicle), and co-incubation of Br-A23187 with Compounds of the Invention treated cells and using […] (FCCP) at 10 μM for 30 min as a control. This assay assesses the ability of the test compounds to protect against cell death that was mediated by mitochondrial dysfunction. In the assay, the calcium ionophore 4-Br-A23187 was used to challenge the cells, causing calcium levels to rise in mitochondria, which leads to depolarization and cell death. Test compounds were assessed for their ability to prevent cell death in response to challenge with 4-Br-A23187.
Background: Formazan colour is commonly taken as a measure of viable cells.
Regarding `CN1CCc2[nH]c3c(N(C)Cc4ccccc4)cccc3c2C1` [A1], the viability at 0.01 µM is -1.1%.

As for `Cc1ccc2c(c1)c1c3n2CC(c2ccncc2)OC(C)CC3(C)CN(C)C1` (stereo not shown) [D8], the viability at 0.01 µM is 73.1%.

On to `CN1CCc2[nH]c3c(NCc4ccccc4)cccc3c2C1` [A3], for which the viability at 0.01 µM came out at 35.1%.

For `Cc1ccc2c(c1)c1c3n2CC(c2ccc(F)cc2)CCC3(C)CN(C)C1` (stereo not shown) [D7], the viability at 0.01 µM was determined as 72.1%.

With `Cc1cc(C#Cc2ccncc2)c2[nH]c3c(c2c1)CN(C)CC3` [A5], the viability at 0.01 µM stood at 28.8%.

As for `Cc1ccc2c(c1)c1c3n2CC(C)(c2ccncc2)OC(C)CC3(C)CN(C)C1` (stereo not shown) [D9], the viability at 0.01 µM turned out to be 81.1%.

For the molecule `Cc1ccc2c(c1)c1c3n2CC(c2ccc(F)cc2)CC3(C)CN(C)C1` (stereo not shown) [D2], the viability at 0.01 µM is 38.4%.

With `Cc1ccc2c(c1)c1c3n2CC=C(c2ccc(F)cc2)CC3(C)CN(C)C1` (stereo not shown) [D5], the viability at 0.01 µM was determined as 72.1%.

On to `Cc1cc(CCc2ccc(C)nc2)c2[nH]c3c(c2c1)CN(C)CC3` [A2], for which the viability at 0.01 µM was -4.41%.

Staying with this test, now noted: compound 10 nM, 4-Br-A23187 (2 μM) for 24 h, Control = 100, Vehicle = 0.
As to `Cc1ccc2c(c1)c1c(n2C)C(C)(CCc2ccc(C)nc2)CN(C)C1` (stereo not shown) [C45], the “Relative Cytoprotective capacity” value came to 4.348.

For `Cc1ccc2c(c1)c1c(n2C)C(C)(CCc2ccccc2)CN(C)C1` (stereo not shown) [C44], the “Relative Cytoprotective capacity” value is −0.6342.

`Cc1ccc2[nH]c3c(c2c1)CN(C)CC3(C)CCc1ccc(C)nc1` (stereo not shown) [C46]: the “Relative Cytoprotective capacity” value was −0.04527.
